This assay concerns the target Lipoprotein-associated phospholipase A2 (Rattus norvegicus). Description: Concentration required for inhibition ofLipoprotein associated phospholipase A2 in rat at dose 2 umol/kg/h.

SMILES strings stand for the structures.

What is called IC50 is the concentration that inhibits the measured activity by half. Consider `CCCCCCCCCCCCN(C)C(=O)Cn1cc(Cc2cnc(=O)n(CC(=O)O)c2)c(=O)nc1SCc1ccc(F)cc1` [{5-[1-[(Dodecyl-methyl-carbamoyl)-methyl]-2-(4-fluoro-benzylsulfanyl)-4-oxo-1,4-dihydro-pyrimidin-5-ylmethyl]-2-oxo-2H-pyrimidin-1-yl}-acetic acid], for which half-maximal inhibition (IC50) required 0.533 µM.

The record behind these values is BindingDB's records for doi:10.1016/s0960-894x(01)00038-5 (Glaxosmithkline, 2001).
